# Experiments:
# [1] = biological target: Sodium-dependent dopamine transporter (Homo sapiens, UniProt Q01959); test: Selectivity interaction (GPCR panel (PDSP screen)) EUB0000717a SLC6A3
# [2] = biological target: T1, Cyclin-G-associated kinase (Homo sapiens) (UniProt O14976); test: Selectivity interaction (KinomeScan (DiscoverX)) EUB0000717a GAK; settings: at 1 µM
# T1 sequence (whole entry): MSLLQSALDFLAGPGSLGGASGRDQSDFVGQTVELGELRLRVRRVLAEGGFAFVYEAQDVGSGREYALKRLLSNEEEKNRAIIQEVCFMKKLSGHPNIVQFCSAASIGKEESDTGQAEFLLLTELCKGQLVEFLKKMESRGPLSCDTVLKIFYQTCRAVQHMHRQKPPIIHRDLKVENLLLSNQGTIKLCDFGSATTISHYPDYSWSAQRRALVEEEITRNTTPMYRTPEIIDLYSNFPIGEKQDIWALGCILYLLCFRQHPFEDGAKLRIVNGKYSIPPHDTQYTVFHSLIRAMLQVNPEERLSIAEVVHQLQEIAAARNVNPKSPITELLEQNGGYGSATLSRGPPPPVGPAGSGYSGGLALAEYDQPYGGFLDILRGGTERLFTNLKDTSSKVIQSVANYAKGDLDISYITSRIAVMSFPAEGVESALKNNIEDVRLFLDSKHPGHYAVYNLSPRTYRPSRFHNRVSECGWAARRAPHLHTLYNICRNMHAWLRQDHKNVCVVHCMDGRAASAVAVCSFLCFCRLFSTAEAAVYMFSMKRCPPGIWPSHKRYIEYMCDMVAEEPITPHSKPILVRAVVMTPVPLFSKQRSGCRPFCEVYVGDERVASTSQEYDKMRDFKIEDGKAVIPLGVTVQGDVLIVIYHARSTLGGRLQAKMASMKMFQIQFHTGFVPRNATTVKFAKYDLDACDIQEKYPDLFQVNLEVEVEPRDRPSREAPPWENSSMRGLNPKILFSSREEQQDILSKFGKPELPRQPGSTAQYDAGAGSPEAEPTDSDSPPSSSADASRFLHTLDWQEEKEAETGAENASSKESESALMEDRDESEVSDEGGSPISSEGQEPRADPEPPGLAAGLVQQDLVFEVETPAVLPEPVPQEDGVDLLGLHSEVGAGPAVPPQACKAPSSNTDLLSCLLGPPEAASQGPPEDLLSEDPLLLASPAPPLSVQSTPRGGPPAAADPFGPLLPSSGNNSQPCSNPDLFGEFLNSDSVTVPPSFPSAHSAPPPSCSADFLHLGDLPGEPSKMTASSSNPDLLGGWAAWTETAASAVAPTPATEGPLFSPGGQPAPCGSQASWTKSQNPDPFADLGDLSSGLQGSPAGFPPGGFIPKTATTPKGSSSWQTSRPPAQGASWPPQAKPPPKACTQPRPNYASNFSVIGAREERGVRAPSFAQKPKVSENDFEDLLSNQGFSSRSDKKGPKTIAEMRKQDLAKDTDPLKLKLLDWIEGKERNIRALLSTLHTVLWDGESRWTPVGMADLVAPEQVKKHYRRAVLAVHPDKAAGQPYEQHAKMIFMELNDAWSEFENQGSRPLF
# [3] = biological target: BMP-2-inducible protein kinase (Homo sapiens) (UniProt Q9NSY1); test: Selectivity interaction (KinomeScan (DiscoverX)) EUB0000717a BMP2K; settings: at 1 µM
# [4] = biological target: Sigma non-opioid intracellular receptor 1 (Homo sapiens, UniProt Q99720); test: Selectivity interaction (GPCR panel (PDSP screen)) EUB0000103c SIGMAR1
# [5] = biological target: Sigma intracellular receptor 2 (Homo sapiens, UniProt Q5BJF2); test: Selectivity interaction (GPCR panel (PDSP screen)) EUB0000103c TMEM97
# [6] = biological target: Sodium channel protein type 2 subunit alpha (Homo sapiens, UniProt Q99250); settings: at 10 µM
# [7] = biological target: Protein arginine N-methyltransferase 6 (Homo sapiens, UniProt Q96LA8)
# [8] = biological target: Histone-arginine methyltransferase CARM1 (Homo sapiens) (UniProt Q86X55)
# [9] = biological target: RNA 5'-monophosphate methyltransferase (Homo sapiens) (UniProt Q7Z5W3); settings: at 50 µM
# [10] = biological target: Dual specificity protein kinase CLK2 (Homo sapiens, UniProt P49760); test: Selectivity interaction (NanoBRET assay (HEK293T cells)) EUB0000009b CLK2
# [11] = biological target: Dual specificity tyrosine-phosphorylation-regulated kinase 1B (Homo sapiens, UniProt Q9Y463); test: Selectivity interaction (NanoBRET assay (HEK293T cells)) EUB0000009b DYRK1B
# [12] = biological target: Dual specificity tyrosine-phosphorylation-regulated kinase 2 (Homo sapiens, UniProt Q92630); test: Selectivity interaction (NanoBRET assay (HEK293T cells)) EUB0000009b DYRK2
# [13] = biological target: Dual specificity tyrosine-phosphorylation-regulated kinase 1A (Homo sapiens, UniProt Q13627); test: Selectivity interaction (NanoBRET assay (HEK293T cells)) EUB0000009b DYRK1A
# [14] = biological target: T2, Bromodomain-containing protein 4 (Homo sapiens, UniProt O60885); test: Selectivity interaction (ITC) EUB0000195c BRD4
# [15] = biological target: Bromodomain-containing protein 2 (Homo sapiens) (UniProt P25440); test: Selectivity interaction (Bromodomain panel (DSF assay)) EUB0000195c BRD2
# [16] = biological target: Bromodomain-containing protein 3 (Homo sapiens) (UniProt Q15059); test: Selectivity interaction (Bromodomain panel (DSF assay)) EUB0000195c BRD3
# [17] = biological target: T3, Muscarinic acetylcholine receptor M2 (Homo sapiens) (UniProt P08172); test: Selectivity interaction (CEREP panel (nuclear receptors, ion channels, and […] other enzymes, including 10 kinases, 9 proteases, and 5 phosphodiesterases)) EUB0000195c CHRM2; settings: at 10 µM
# T3 sequence (whole entry): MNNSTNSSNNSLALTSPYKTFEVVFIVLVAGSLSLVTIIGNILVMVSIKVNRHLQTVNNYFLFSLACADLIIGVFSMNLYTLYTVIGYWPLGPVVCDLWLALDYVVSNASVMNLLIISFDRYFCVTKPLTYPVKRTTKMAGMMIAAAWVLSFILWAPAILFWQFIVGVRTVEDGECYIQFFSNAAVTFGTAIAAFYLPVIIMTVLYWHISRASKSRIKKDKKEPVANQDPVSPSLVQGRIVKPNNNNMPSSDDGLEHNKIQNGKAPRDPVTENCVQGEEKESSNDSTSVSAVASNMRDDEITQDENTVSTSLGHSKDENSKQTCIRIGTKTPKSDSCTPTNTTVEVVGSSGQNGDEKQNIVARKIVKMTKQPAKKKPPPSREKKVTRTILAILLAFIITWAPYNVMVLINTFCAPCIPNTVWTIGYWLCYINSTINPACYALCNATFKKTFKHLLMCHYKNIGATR
# [18] = biological target: Histone acetyltransferase p300 (Homo sapiens) (UniProt Q09472); test: Selectivity interaction (DSF assay) EUB0000195c EP300
# CREB-binding protein [19] = biological target: T4, CREB-binding protein (Homo sapiens, UniProt Q92793)
# [20] = biological target: T2, Bromodomain-containing protein 4; test: (§1) Selectivity interaction (Bromodomain panel (DSF assay)) EUB0000195c BRD4
# [21] = biological target: T5, Alpha-1A adrenergic receptor (Homo sapiens) (UniProt P35348); test: Selectivity interaction (CEREP panel (nuclear receptors, ion channels, and […] other enzymes, including 10 kinases, 9 proteases, and 5 phosphodiesterases)) EUB0000195c ADRA1A; settings: at 10 µM
# T5 sequence (whole entry): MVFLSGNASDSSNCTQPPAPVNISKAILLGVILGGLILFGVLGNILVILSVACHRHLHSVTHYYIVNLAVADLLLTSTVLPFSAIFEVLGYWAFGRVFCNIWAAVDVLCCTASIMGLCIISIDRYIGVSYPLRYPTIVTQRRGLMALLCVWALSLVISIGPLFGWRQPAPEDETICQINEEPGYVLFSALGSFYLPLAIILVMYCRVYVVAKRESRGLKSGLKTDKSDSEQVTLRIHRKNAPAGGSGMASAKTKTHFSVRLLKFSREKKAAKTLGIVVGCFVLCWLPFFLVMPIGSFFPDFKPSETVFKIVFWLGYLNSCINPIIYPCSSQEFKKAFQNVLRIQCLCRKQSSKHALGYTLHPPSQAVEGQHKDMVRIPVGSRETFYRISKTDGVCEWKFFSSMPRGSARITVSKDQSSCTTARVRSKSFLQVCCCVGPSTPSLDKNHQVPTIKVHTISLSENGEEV
# [22] = biological target: T2, Bromodomain-containing protein 4; test: as §1; remark: listed apart in the source
# CREB-binding protein [23] = biological target: T4, CREB-binding protein; remark: listed apart in the source
# Target sequence in this assay (Q92793 2-2442 limits assumed): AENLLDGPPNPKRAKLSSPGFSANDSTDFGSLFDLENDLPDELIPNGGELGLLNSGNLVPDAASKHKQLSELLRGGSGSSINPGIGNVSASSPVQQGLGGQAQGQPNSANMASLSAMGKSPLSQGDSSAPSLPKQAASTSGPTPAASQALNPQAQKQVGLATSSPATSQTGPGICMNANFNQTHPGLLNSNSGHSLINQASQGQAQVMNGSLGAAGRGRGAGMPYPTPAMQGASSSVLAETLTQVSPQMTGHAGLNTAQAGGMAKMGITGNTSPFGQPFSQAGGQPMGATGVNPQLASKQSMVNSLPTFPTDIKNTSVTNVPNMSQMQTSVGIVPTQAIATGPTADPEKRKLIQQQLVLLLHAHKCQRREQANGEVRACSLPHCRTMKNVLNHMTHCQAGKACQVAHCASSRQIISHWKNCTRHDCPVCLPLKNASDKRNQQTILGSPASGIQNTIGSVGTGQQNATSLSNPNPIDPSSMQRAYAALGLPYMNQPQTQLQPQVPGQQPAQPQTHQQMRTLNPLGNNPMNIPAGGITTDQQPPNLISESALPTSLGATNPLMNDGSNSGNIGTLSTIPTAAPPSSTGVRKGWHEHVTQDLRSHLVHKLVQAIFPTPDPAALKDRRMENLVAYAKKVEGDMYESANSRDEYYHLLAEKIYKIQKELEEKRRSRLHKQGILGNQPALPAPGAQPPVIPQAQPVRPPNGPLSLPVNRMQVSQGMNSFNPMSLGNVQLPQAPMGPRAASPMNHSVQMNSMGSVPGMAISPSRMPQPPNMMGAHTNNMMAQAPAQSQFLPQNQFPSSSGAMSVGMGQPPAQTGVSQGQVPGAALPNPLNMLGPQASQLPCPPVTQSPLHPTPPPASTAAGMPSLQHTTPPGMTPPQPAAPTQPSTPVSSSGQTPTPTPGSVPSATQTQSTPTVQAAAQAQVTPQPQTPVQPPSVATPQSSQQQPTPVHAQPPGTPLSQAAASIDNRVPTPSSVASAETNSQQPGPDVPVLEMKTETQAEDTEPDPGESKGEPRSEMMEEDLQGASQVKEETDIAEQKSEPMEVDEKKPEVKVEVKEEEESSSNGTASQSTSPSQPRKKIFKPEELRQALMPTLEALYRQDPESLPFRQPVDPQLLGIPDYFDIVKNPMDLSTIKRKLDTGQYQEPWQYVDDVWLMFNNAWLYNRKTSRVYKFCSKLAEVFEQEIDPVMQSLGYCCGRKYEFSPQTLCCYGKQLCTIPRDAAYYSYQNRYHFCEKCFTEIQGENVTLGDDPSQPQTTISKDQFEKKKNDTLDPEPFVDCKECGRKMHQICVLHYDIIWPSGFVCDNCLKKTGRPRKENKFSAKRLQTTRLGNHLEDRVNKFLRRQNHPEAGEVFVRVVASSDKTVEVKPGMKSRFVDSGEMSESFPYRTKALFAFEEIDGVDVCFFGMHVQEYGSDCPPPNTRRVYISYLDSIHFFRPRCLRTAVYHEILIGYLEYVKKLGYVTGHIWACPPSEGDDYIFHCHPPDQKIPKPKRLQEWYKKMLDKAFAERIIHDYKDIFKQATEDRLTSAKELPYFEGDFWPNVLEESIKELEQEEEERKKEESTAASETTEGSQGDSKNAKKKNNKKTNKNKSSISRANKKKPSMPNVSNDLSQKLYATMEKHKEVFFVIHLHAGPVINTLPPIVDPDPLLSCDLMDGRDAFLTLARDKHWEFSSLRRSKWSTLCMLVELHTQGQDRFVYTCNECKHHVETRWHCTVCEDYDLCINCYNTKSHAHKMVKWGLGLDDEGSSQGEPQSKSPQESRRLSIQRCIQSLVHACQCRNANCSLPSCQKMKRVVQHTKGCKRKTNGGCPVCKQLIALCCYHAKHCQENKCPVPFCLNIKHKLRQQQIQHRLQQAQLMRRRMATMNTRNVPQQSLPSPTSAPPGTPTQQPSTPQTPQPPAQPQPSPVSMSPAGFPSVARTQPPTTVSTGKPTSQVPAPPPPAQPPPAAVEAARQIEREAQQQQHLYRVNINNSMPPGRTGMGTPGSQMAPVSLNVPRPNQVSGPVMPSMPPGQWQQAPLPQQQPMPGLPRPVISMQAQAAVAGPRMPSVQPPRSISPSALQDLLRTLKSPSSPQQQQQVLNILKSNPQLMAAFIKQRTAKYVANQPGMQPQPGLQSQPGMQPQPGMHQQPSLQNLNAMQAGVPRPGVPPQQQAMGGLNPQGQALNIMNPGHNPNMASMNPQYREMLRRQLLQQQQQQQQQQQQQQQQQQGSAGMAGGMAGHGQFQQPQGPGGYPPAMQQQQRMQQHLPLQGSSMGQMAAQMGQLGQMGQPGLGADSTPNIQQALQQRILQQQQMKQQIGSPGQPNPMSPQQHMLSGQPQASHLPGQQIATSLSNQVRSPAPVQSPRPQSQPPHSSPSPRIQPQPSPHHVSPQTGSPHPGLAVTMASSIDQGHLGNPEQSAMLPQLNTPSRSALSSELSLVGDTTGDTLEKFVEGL
# [24] = biological target: Sodium-dependent noradrenaline transporter (Homo sapiens, UniProt P23975); settings: at 10 µM
# [25] = biological target: T6, Adenosine receptor A1 (Homo sapiens) (UniProt P30542); settings: at 10 µM
# T6 sequence (whole entry): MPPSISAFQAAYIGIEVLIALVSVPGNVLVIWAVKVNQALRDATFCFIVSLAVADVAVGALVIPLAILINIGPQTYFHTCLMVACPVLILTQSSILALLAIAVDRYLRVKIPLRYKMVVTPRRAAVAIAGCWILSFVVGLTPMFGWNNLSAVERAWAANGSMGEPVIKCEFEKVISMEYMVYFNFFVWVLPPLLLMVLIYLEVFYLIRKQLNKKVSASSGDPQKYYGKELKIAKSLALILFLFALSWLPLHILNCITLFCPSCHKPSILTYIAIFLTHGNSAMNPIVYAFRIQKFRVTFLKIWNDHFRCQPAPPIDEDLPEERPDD
# [26] = biological target: T2, Bromodomain-containing protein 4; test: Selectivity interaction (ITC) EUB0000205c BRD4
# [27] = biological target: Kappa-type opioid receptor (Homo sapiens, UniProt P41145); settings: at 10 µM
# [28] = biological target: Epidermal growth factor receptor (Homo sapiens, UniProt P00533, L858R); test: (§2) Selectivity interaction (Z’-LYTE assay (SelectScreen Invitrogen)) EUB0000690a EGFR
# [29] = biological target: Epidermal growth factor receptor (Homo sapiens, UniProt P00533, T790M); test: as §2
# Focal adhesion kinase 1 = Focal adhesion kinase 1 (Homo sapiens, UniProt Q05397); test: Selectivity interaction (Z’-LYTE assay (SelectScreen Invitrogen)) EUB0000690a PTK2
# [30] = biological target: Protein-tyrosine kinase 2-beta (Homo sapiens, UniProt Q14289); test: Selectivity interaction (Z’-LYTE assay (SelectScreen Invitrogen)) EUB0000690a PTK2B
# [31] = biological target: Leukocyte tyrosine kinase receptor (Homo sapiens, UniProt P29376); test: Selectivity interaction (Z’-LYTE assay (SelectScreen Invitrogen)) EUB0000690a LTK
# Activated CDC42 kinase 1 = Activated CDC42 kinase 1 (Homo sapiens, UniProt Q07912); test: Selectivity interaction (Z’-LYTE assay (SelectScreen Invitrogen)) EUB0000690a TNK2
# [32] = biological target: Tyrosine-protein kinase JAK2 (Homo sapiens, UniProt O60674); test: Selectivity interaction (Z’-LYTE assay (SelectScreen Invitrogen)) EUB0000690a JAK2
# [33] = biological target: NT-3 growth factor receptor (Homo sapiens, UniProt Q16288); test: Selectivity interaction (Z’-LYTE assay (SelectScreen Invitrogen)) EUB0000690a NTRK3
# [34] = biological target: High affinity nerve growth factor receptor (Homo sapiens, UniProt P04629); test: Selectivity interaction (Z’-LYTE assay (SelectScreen Invitrogen)) EUB0000690a NTRK1
# [35] = biological target: Tyrosine-protein kinase Fer (Homo sapiens, UniProt P16591); test: Selectivity interaction (Z’-LYTE assay (SelectScreen Invitrogen)) EUB0000690a FER
# [36] = biological target: Tyrosine-protein kinase Fes/Fps (Homo sapiens, UniProt P07332); test: Selectivity interaction (Z’-LYTE assay (SelectScreen Invitrogen)) EUB0000690a FES
# [37] = biological target: Tyrosine-protein kinase FRK (Homo sapiens, UniProt P42685); test: Selectivity interaction (Z’-LYTE assay (SelectScreen Invitrogen)) EUB0000690a FRK
# Tyrosine-protein kinase Fer, sequence (P16591 whole entry): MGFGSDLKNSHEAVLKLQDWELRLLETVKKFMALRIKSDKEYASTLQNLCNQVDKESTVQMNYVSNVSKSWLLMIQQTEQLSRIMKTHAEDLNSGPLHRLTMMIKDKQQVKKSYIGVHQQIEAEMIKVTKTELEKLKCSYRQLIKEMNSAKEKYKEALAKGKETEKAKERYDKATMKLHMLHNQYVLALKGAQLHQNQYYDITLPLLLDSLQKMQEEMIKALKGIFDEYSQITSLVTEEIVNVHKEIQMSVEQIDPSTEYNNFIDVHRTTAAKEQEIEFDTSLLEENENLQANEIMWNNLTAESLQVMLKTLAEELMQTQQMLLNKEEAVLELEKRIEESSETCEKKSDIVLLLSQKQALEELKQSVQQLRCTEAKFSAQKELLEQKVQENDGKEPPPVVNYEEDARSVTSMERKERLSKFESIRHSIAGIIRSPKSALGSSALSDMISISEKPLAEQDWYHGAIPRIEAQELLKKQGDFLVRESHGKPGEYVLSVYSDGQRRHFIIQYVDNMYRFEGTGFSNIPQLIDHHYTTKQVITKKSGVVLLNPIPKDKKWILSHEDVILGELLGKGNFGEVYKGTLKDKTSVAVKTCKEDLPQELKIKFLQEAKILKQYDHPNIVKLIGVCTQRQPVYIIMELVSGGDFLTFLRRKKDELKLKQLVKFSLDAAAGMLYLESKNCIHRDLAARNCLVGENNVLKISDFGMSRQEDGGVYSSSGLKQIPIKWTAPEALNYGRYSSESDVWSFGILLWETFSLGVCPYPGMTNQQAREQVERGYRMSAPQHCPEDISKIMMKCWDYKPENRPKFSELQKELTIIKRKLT
# Bromodomain-containing protein 2 (Homo sapiens), sequence (P25440 whole entry, looked up): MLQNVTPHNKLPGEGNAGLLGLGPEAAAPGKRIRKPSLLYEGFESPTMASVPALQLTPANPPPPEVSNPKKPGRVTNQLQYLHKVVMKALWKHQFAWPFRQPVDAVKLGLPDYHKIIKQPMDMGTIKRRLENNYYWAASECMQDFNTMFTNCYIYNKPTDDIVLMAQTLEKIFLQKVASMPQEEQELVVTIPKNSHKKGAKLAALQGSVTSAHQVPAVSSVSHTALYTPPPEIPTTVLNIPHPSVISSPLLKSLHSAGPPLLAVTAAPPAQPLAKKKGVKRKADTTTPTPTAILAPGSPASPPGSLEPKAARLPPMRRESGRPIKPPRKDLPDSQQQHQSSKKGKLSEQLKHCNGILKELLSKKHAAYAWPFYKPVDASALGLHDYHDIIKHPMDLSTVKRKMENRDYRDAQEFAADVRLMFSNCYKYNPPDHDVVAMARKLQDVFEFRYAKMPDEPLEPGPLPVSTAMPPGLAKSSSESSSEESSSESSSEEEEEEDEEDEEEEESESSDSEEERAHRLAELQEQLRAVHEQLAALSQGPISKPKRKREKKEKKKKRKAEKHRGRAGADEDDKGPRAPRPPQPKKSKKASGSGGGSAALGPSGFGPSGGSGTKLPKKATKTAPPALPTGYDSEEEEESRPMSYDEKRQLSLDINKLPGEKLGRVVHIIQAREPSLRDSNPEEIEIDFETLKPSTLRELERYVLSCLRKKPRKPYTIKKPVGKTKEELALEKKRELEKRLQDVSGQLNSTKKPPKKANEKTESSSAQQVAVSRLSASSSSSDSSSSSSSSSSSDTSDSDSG
# Protein-tyrosine kinase 2-beta, sequence (Q14289 whole entry): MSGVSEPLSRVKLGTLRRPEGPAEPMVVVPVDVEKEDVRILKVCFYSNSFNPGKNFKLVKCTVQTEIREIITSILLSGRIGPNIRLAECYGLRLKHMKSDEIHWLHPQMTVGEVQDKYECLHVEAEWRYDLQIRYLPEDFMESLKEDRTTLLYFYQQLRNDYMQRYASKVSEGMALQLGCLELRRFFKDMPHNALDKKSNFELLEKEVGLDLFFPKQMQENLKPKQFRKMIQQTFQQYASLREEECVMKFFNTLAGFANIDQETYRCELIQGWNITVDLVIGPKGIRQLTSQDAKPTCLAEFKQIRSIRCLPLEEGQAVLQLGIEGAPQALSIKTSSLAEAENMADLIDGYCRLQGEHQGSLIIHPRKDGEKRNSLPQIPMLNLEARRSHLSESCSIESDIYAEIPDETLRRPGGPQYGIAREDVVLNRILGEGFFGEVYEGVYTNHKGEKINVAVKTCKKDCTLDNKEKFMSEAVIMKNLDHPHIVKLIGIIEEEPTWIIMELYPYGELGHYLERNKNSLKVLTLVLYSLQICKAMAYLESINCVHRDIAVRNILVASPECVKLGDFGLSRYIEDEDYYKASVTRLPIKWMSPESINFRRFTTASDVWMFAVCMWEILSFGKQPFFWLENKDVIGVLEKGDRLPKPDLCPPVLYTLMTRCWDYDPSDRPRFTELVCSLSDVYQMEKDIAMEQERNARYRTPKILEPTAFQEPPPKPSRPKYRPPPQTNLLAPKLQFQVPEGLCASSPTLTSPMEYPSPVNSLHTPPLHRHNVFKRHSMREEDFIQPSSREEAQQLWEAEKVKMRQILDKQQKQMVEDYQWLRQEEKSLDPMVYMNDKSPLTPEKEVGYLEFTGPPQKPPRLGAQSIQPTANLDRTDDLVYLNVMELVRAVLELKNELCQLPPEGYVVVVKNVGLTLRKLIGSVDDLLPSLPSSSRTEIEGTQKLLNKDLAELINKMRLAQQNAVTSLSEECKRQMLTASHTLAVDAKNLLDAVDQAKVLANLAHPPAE
structure (smiles),measurement,setting,value
O=C1c2ccc(Nc3ccc(F)cc3F)cc2CCc2ccc(OC[C@H](O)CO)cc21 [Skepinone-L],Ki,[1],> 10000 nM
same,% of control,[2],53%
same,% of control,[3],37%
CNCCN1CCC(OCc2ccccc2)CC1,Ki,[4],54 nM
same,Ki,[5],574 nM
same,inhibition,[6],31%
same,dTm,[7],11.3 K
same,dTm,[8],3.3 K
same,% activity remaining,[9],78%
Cn1cc(-c2ccc3occ(-c4ccccc4-c4ccccc4)c3n2)cn1,Ki,[10],> 10000 nM
same,Ki,[11],> 10000 nM
same,Ki,[12],> 10000 nM
same,Ki,[13],> 10000 nM
CCC(=O)N1CCOc2c(cc(-c3ccc(OC)c(OC)c3)cc2OC[C@H]2CCCN(C)C2)C1,Kd,[14],> 20000 nM
same,dTm,[15],1.35 K
same,dTm,[16],1.55 K
same,% of inhibition,[17],67%
same,dTm,[18],8.6 K
same,Kd,CREB-binding protein [19],170 nM
same,dTm,[20],0.58 K
same,% of inhibition,[21],89%
same,dTm,[22],2.09 K
same,dTm,CREB-binding protein [23],7.8 K
COc1cc(C#N)ccc1S(=O)(=O)Nc1ccc2c(c1)cc(C)c(=O)n2C,mean % of control,[24],61%
same,mean % of control,[25],62%
same,Kd,[26],3900 nM
same,mean % of control,[27],80%
C[C@H]1Oc2cc(cnc2N)-c2c(nn(C)c2C#N)CN(C)C(=O)c2ccc(F)cc21 [LORLATINIB],Ki,[28],56 nM
same,Ki,[29],319 nM
same,Ki,Focal adhesion kinase 1,17 nM
same,Ki,[30],14 nM
same,Ki,[31],2.7 nM
same,Ki,Activated CDC42 kinase 1,17 nM
same,Ki,[32],529 nM
same,Ki,[33],46 nM
same,Ki,[34],24 nM
same,Ki,[35],3.3 nM
same,Ki,[36],6 nM
same,Ki,[37],53 nM
